The molecules below were run against wild type RET (Homo sapiens (Human), UniProt P07949) (assay: RET Wild Type Assay at KM (Caliper electrophoretic mobility shift)). Conditions: 25 μM ATP, 25° C., 120 minutes.
Type: biochemical

wild type RET, sequence (P07949 29-1114): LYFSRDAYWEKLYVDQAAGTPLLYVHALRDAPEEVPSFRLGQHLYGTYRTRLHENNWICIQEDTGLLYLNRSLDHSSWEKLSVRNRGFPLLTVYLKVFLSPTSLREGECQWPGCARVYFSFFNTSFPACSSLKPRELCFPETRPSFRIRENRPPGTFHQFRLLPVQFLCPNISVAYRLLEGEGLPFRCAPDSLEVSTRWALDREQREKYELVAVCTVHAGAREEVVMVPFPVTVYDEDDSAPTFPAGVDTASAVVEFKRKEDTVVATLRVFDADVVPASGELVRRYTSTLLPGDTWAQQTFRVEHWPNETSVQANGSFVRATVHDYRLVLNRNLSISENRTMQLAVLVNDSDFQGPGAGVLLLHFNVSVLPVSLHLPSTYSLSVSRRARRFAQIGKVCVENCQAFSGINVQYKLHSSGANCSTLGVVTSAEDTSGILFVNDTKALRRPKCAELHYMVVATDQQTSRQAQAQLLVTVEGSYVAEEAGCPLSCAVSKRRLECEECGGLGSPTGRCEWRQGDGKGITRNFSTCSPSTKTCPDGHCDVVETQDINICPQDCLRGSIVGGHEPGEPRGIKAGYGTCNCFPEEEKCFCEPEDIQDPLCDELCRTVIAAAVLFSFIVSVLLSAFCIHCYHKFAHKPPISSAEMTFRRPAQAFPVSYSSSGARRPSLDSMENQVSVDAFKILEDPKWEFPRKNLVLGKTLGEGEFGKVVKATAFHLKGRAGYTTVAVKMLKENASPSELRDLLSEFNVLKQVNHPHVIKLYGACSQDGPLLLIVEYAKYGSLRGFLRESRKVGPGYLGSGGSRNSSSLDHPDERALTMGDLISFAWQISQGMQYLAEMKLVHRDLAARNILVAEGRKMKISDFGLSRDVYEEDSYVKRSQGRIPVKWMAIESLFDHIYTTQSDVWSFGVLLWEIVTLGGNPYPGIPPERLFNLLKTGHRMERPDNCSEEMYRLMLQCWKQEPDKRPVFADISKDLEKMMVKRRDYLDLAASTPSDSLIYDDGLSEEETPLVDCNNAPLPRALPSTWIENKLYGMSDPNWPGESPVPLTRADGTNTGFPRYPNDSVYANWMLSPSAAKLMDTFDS

Going from `Cc1cc(Nc2cc(C)[nH]n2)nc(-c2ccc(C(=O)N[C@H](C)c3ccccc3)nc2)n1` [Compound 6] to `Cc1cc(Nc2cc(C)[nH]n2)nc(-c2ccc(C(=O)N[C@@H](C)c3ccc(-n4cc(F)cn4)nc3)nc2)n1` [Compound 25, (S)—N-(1-(6-(4-fluoro-1H-pyrazol-1-yl)pyridin-3-yl)ethyl)-5-(4-methyl-6-((5-methyl-1H-pyrazol-3-yl)amino)pyrimidin-2-yl)picolinamide], the IC50 falls from greater than 100 nM to less than 10 nM. The second is the more potent here.

`Cc1cc(Nc2cc(C)[nH]n2)nc(-c2ccc(C(=O)NCc3ccc(-n4cc(C(F)F)c(C)n4)nc3)nc2)n1` [Compound 32] and `Cc1cc(Nc2cc(C)[nH]n2)nc(-c2ccc(C(=O)NCc3ccc(-n4cc(C(F)F)cn4)nc3)nc2)n1` [Compound 31] fall in the same range of IC50: 10 to 100 nM for the first, 10 to 100 nM for the second.

First: Cc1cc(Nc2cc(C)[nH]n2)nc(-c2ccc(C(=O)NCc3ccc(-n4cc(C5CC5)cn4)nc3)nc2)n1 [Compound 27]
Second: Cc1cnn(-c2ccc(CNC(=O)c3ccc(-c4nc(C)cc(Nc5cc(C)[nH]n5)n4)cn3)cn2)c1 [Compound 18]
The IC50 of the first is higher: 10 to 100 nM for the first, less than 10 nM for the second. The second is the more potent here.

First: CCOc1ccc(CNC(=O)c2ncc(-c3nc(C)cc(Nc4cc(C)[nH]n4)n3)cc2C)cc1 [Compound 13]
Second: CCOc1ccc([C@H](C)NC(=O)c2ncc(-c3nc(C)cc(Nc4cc(C)[nH]n4)n3)cc2C)cc1 [Compound 17]
The IC50 of the first is lower: 10 to 100 nM for the first, greater than 100 nM for the second. The first is the more potent here.

First: Cc1cc(Nc2cc(C)[nH]n2)nc(-c2ccc(C(=O)N3Cc4ccccc4C3)nc2)n1 [Compound 4]
Second: Cc1cc(Nc2cc(C)[nH]n2)nc(-c2ccc(C(=O)NCc3cccc(F)c3)nc2)n1 [Compound 8]
The IC50 of the first is lower: 10 to 100 nM for the first, greater than 100 nM for the second. The first is the more potent here.

`Cc1cc(Nc2cc(C)[nH]n2)nc(-c2ccc(C(=O)NCc3ccc(Cl)cc3)nc2)n1` [Compound 11] and `Cc1cc(Nc2cc(C)[nH]n2)nc(-c2ccc(C(=O)NCc3ccc(F)cc3)nc2)n1` [Compound 9] fall in the same range of IC50: 10 to 100 nM for the first, 10 to 100 nM for the second.

`Cc1cc(Nc2cc(C)[nH]n2)nc(-c2ccc(C(=O)NCc3ccc(-n4cc(C#N)cn4)nc3)nc2)n1` [Compound 22] and `Cc1cc(Nc2cc(C)[nH]n2)nc(-c2ccc(C(=O)NCc3ccc(-n4cc(CCO)cn4)nc3)nc2)n1` [Compound 28] fall in the same range of IC50: 10 to 100 nM for the first, 10 to 100 nM for the second.

`Cc1cc(Nc2cc(C)[nH]n2)nc(-c2ccc(C(=O)NCc3ccc(-n4nc(C)cc4C)nc3)nc2)n1` [Compound 24] and `Cc1cc(Nc2cc(C)[nH]n2)nc(-c2ccc(C(=O)NCc3ccc(-n4ccc(C5CC5)n4)nc3)nc2)n1` [Compound 26] cannot be ordered by IC50: less than 10 nM for the first, less than 10 nM for the second.

Compared with `Cc1cc(Nc2cc(C)[nH]n2)nc(-c2ccc(C(=O)NCc3cncs3)nc2)n1` [Compound 3], `Cc1cc(Nc2cc(C)[nH]n2)nc(-c2ccc(C(=O)NCc3ccoc3)nc2)n1` [Compound 1] is lower in IC50: greater than 100 nM for the first, 10 to 100 nM for the second. The second is the more potent here.

`Cc1cc(Nc2cc(C)[nH]n2)nc(-c2cnc(C(=O)N[C@@H](C)c3ccc(-n4cc(F)cn4)nc3)c(C)c2)n1` [Compound 29, (S)—N-(1-(6-(4-fluoro-1H-pyrazol-1-yl)pyridin-3-yl)ethyl)-3-methyl-5-(4-methyl-6-((5-methyl-1H-pyrazol-3-yl)amino)pyrimidin-2-yl)picolinamide] and `Cc1cc(Nc2cc(C)[nH]n2)nc(-c2cnc(C(=O)N[C@@H](C)c3ccc(-n4cc(F)cn4)nc3)c(F)c2)n1` [Compound 30, (S)-3-fluoro-N-(1-(6-(4-fluoro-1H-pyrazol-1-yl)pyridin-3-yl)ethyl)-5-(4-methyl-6-((5-methyl-1H-pyrazol-3-yl)amino)pyrimidin-2-yl)picolinamide] cannot be ordered by IC50: less than 10 nM for the first, less than 10 nM for the second.

`Cc1cc(Nc2cc(C)[nH]n2)nc(-c2ccc(C(=O)NCc3cnc(-n4cc(F)cn4)cn3)nc2)n1` [Compound 21] and `CC[C@@H](NC(=O)c1ccc(-c2nc(C)cc(Nc3cc(C)[nH]n3)n2)cn1)c1ccc(-n2cc(F)cn2)nc1` [Compound 34] cannot be ordered by IC50: less than 10 nM for the first, less than 10 nM for the second.

`Cc1ccc(CNC(=O)c2ccc(-c3nc(C)cc(Nc4cc(C)[nH]n4)n3)cn2)cc1` [Compound 5] and `Cc1ccc(CNC(=O)c2ccc(-c3nc(C)cc(Nc4cc(C)[nH]n4)n3)cn2)nc1` [Compound 7] fall in the same range of IC50: 10 to 100 nM for the first, 10 to 100 nM for the second.

`Cc1cc(Nc2cc(C)[nH]n2)nc(-c2cnc(C(=O)N[C@@H](C)c3ccc(-n4cccn4)nc3)c(C)c2)n1` [Compound 23] and `Cc1cc(Nc2cc(C)[nH]n2)nc(-c2cnc(C(=O)NCc3ccc(-n4cccn4)nc3)c(C)c2)n1` [Compound 19] cannot be ordered by IC50: less than 10 nM for the first, less than 10 nM for the second.

`CCOc1ccc([C@@H](C)NC(=O)c2ncc(-c3nc(C)cc(Nc4cc(C)[nH]n4)n3)cc2C)cc1` [Compound 16] showed an IC50 greater than 100 nM.
